This is an account of results in US10064845B2, “Compositions and methods of treating muscular dystrophy with thromboxane-A2 receptor antagonists” (Cumberland Pharmaceuticals, Inc., priority 2016, dated 2018).

The subject of assay [1] is pressure-overload model of pulmonary arterial hypertension. The following applies: cited from earlier work.
Assay [2] concerns δ-sarcoglycan knockout (dSG KO) mouse model of limb-girdle muscular dystrophy. Description: plasma cardiac troponin I in dSG KO mice. The format is in vivo. The following applies: given in drinking water. An excerpt:
(§1) Applicants explored the possibility that TPr activity may contribute to pathology in muscular dystrophy. In preliminary studies, the effects of blocking TPr activity in a δ-sarcoglycan knockout (dSG KO) mouse model of limb-girdle muscular dystrophy (LGMD). […] The inhibition of LV epicardial fibrosis may have particular applicability to DMD patients, where cardiac fibrosis typically begins in the sub-epicardium of the left ventricular (LV) free wall and progresses to include the remaining LV free wall and septum. […] Therefore, it is believed that TPr activity contributes to pathology in muscular dystrophy.
Example 4 utilized West/Carrier Muscular Dystrophy Animal Models (Delta-sarcoglycan knock-out mice (sgcd−/−)). Mice devoid of DSG develop cardiomyopathy and MD with signs of progressive disease such as necrosis, muscular regeneration, inflammation and fibrosis within the first 3 months of life. Mice that are homozygous for the targeted mutation are viable, fertile and normal in size. No gene product (protein) is immunodetected in skeletal muscle microsomal preparations. […] Myofiber membranes have permeability defects as assessed by Evans blue dye uptake into myofiber cytoplasm. […]
The term “cTNI” means plasma cardiac troponin I. The term “KO” means knockout. […] Plasma cardiac troponin I (cTNI) is highly specific and sensitive for myocardial tissue and can be measured rapidly. […]

In assay [3] the test system is dSG KO mice. Description: survival of dSG KO mice. The class given is in vivo, mouse. An excerpt: Applicants explored the possibility that TPr activity may contribute to pathology in muscular dystrophy. In preliminary studies, the effects of blocking TPr activity in a δ-sarcoglycan knockout (dSG KO) mouse model of limb-girdle muscular dystrophy (LGMD). […] The inhibition of LV epicardial fibrosis may have particular applicability to DMD patients, where cardiac fibrosis typically begins in the sub-epicardium of the left ventricular (LV) free wall and progresses to include the remaining LV free wall and septum. […] Therefore, it is believed that TPr activity contributes to pathology in muscular dystrophy. Example 4 utilized West/Carrier Muscular Dystrophy Animal Models (Delta-sarcoglycan knock-out mice (sgcd−/−)). Mice devoid of DSG develop cardiomyopathy and MD with signs of progressive disease such as necrosis, muscular regeneration, inflammation and fibrosis within the first 3 months of life. Mice that are homozygous for the targeted mutation are viable, fertile and normal in size. No gene product (protein) is immunodetected in skeletal muscle microsomal preparations. At 8 weeks of age there is an onset of sudden mortality, with a 50% survival rate at 28 weeks. Elevated creatine kinase serum levels are indicative of striated muscle degeneration. […] Myofiber membranes have permeability defects as assessed by Evans blue dye uptake into myofiber cytoplasm. […]

Assay [4] concerns δ-sarcoglycan knockout (dSG KO) mouse model of limb-girdle muscular dystrophy. Description: cardiac function (Echo, cardiac output) in dSG KO mice. The format is in vivo.
Text: as §1
(§2) Example 4 utilized West/Carrier Muscular Dystrophy Animal Models (Delta-sarcoglycan knock-out mice (sgcd−/−)). Mice devoid of DSG develop cardiomyopathy and MD with signs of progressive disease such as necrosis, muscular regeneration, inflammation and fibrosis within the first 3 months of life. Mice that are homozygous for the targeted mutation are viable, fertile and normal in size. No gene product (protein) is immunodetected in skeletal muscle microsomal preparations. At 8 weeks of age there is an onset of sudden mortality, with a 50% survival rate at 28 weeks. Elevated creatine kinase serum levels are indicative of striated muscle degeneration. […] At 12 weeks of age, cardiac muscle tissue also begins to show degeneration, inflammatory infiltration and perivascular fibrosis. Myofiber membranes have permeability defects as assessed by Evans blue dye uptake into myofiber cytoplasm. […] A major function of dystrophin is to strengthen the sarcolemma by cross-linking the ECM with the cytoskeleton. […] They work to connect sarcolemma to cytoplasmic actin cytoskeleton. Dysfunction produces membrane instability, elevated [Ca2+]I and disrupted NO signaling. γ- and δ-SG form a core necessary for delivery/retention of other SG to the membrane.
(§3) While the DSG KO (sgcd−/−) mice lack functional delta-sarcoglycan, the MD phenotype is milder than the human disease. […]

The subject of assay [5] is dSG KO mice. The assay can be described thus: intestinal histology (H&E) in dSG KO mice. The format is in vivo, mouse. The following applies: dSG KO mice vs vehicle-treated dSG KO mice; FIG. 13.
Text: as §2, with “membrane. […]” for “membrane.”

Assay [6] concerns dSG KO mice. The assay can be described thus: spontaneous exercise (voluntary wheel running) in dSG KO mice. The following applies: 6 month old dSG KO males; wheel access for 10 days after 4.5M of treatment; FIG. 5. The format is in vivo, mouse.
Text: as §2
FIG. 5 provides spontaneous exercise date for 6 month old males. […]

In assay [7] the test system is δ-sarcoglycan knockout (dSG KO) mouse model of limb-girdle muscular dystrophy. The assay can be described thus: cardiac histology (Masson's trichrome) in dSG KO mice. The format is in vivo.
Text: as §1, §2
FIGS. 9A (dSGKO-vehicle) and 9B (DsGKO-ifetroban) show cardiac histology in dSG KO males. Less fibrosis seen in ifetroban treated RV. Shown is Masson's trichrome at 4× for gross histology. […]

Assay [8] relates to utrophin/dystrophin double knockout (DKO) mice. Description: wire hang in DKO males. The format is in vivo, mouse. The following applies: DKO males at 10 weeks; vs vehicle; FIG. 15. An excerpt: While the DSG KO (sgcd−/−) mice lack functional delta-sarcoglycan, the MD phenotype is milder than the human disease. Since utrophin, a dystrophin-related protein, is able to compensate for the loss of dystrophin, loss of utrophin and dystrophin (DKO) results in a more severe phenotype. […] The mice are difficult to generate and care for, and often die prematurely. Ifetroban treatment was started at 3 weeks upon weaning.
FIG. 1 are photos of a vehicle-treated compared with an ifetroban-treated DKO mouse. FIG. 1A is a photograph of a vehicle-treated DKO Mouse at 10 weeks. FIG. 1B is a photograph of an ifetroban-treated DKO mouse at 10 weeks. The ability to wrap the tail around the wire is dependent on muscle function. A reason the DKO mice are really hard to evaluate in the wire hang is that they have such severe scoliosis that their hind paws are very close to their front paws, so raising their hind paws to get a 4-limbed grip is not difficult despite their affliction.
FIG. 15 are graphs showing wire hang in DKO males at 10 weeks (ifetroban-treated (“ife”) versus vehicle).

Assay [9] has as its system dSG KO mice. The assay can be described thus: wire hang in dSG mice. The class given is in vivo, mouse.
Text: as §2
Veh and ife-treated groups were NS tested against each other. N in parentheses. “ife”=ifetroban.
FIG. 8 depicts wire hang time for mice tested.

The subject of assay [10] is utrophin/dystrophin double knockout (DKO) mice, a model of severe DMD. Description: survival of utrophin/dystrophin DKO mice. The format is in vivo, mouse.
Text: as §1
dSG KO mice, chosen for their cardiac phenotype, are a model of LGMD, but DMD which occurs in approximately 1:3500 male births (1), is far more common a disease than LGMD. The mdx mouse model of DMD poorly replicates the shortened life expectancy, cardiac fibrosis, and cardiomyopathy seen in DMD patients. The utrophin/dystrophin DKO model had significant mortality by 10 weeks, although treatment with the TPr antagonist ifetroban led to 100% survival to this predetermined timepoint. Although TPr antagonism may prevent spontaneous death in DMD, due to severe kyphosis and frailty we were not able to obtain much useful cardiac data with the DKO model of DMD.
as §3

Setting [11] is: dSG KO mice, given in drinking water, preliminary studies.

On to `CC(=O)Oc1ccccc1C(=O)O` [aspirin], for which, in [1], the cardiac function entry is reported as “no effect” and the right ventricular fibrosis entry is reported as “no effect”.

Turning to `CCCCCNC(=O)c1coc([C@H]2[C@@H](Cc3ccccc3CCC(=O)O)[C@@H]3CC[C@H]2O3)n1` [ifetroban, [1S-(1α,2α,3α,4α)]-2-[[3-[4-[(Pentylamino)carbonyl]-2-oxazolyl]-7-oxabicyclo[2.2.1]hept-2-yl]methyl]-benzenepropanoic acid], the “plasma cardiac troponin I levels” value in assay [2] was “normalizing elevated plasma cardiac troponin I levels”. In the assay with dSG KO mice [3], the survival result is recorded as “significantly improved survival”. The “3 month Echo data: cardiac dysfunction” value in [4] (dSG KO males at 3 months, FIG. 3) was “prevents cardiac dysfunction”. Also, in [4] (setting [11]), the “decline in cardiac function” value was “prevents a decline in cardiac function”. For the same molecule, in assay [4] (male dSG KO mice at 3 months, FIG. 4, compared to vehicle), the cardiac output result is “improved similar to WT levels”. The “fibrosis in intestinal tissue” value in the assay on dSG KO mice [5] is listed as “less fibrosis”. For the same molecule, in the assay on dSG KO mice [6], the “spontaneous exercise (voluntary wheel running): skeletal function deficit” value is “seen to a less extent”. In [7] (dSG KO males, Masson's trichrome 4× (FIG. 9) or 2× (FIG. 10)), the “cardiac histology: fibrosis in RV” value is reported as “less fibrosis”. The “cardiac histology: fibrosis in left and right ventricle” value in assay [7] (dSG KO males, Masson's trichrome, 10×, FIG. 11) is given as “Less fibrosis”. Moreover, the “formation of cardiac fibrosis” value in assay [7] (setting [11]) is reported as “limits the formation of cardiac fibrosis”. For the same molecule, in [1], the cardiac function result is listed as “improves cardiac function” and the right ventricular fibrosis entry is “dramatically decreases right ventricular fibrosis”. Besides, in [8], the “average wire hang time” value is recorded as “significantly longer average hang times”. Also, the wire hang time result with dSG KO mice [9] (dSG mice at 6 months, FIG. 6) is “improved wire hang time”. For the same molecule, in the assay on dSG KO mice [9] (male mice at 6 months, FIG. 8), the “wire hang time (longest time)” value is “difficult to measure any difference”. The same molecule displayed a 10-week survival in assay [10] (DKO mice, treatment started at 3 weeks upon weaning) of 100%. Moreover, the survival time in [10] (all DKO mice, FIG. 17) is given as > 70 days.

Regarding `O=C(O)/C=C/c1ccc(Cn2ccnc2)cc1` [ozagrel], in assay [1], the cardiac function result is on record as “no effect” and the right ventricular fibrosis result was “no effect”.
